Data taken from paper PMC11439058, “Exploiting the bile acid binding protein as transporter of a Cholic Acid/Mirin bioconjugate for potential applications in liver cancer therapy” (Scientific Reports, 2024).
“And” between values parts separate entries of the source, which are not always exact repeats. Equal values may be shown once. Read-outs that look alike come from different tables or passages of the source.

Columns and labels:
in vitro [1] = test: in vitro
Experimental: (§1) Plasma Stability and stability in the cellular medium. A DMSO stock solution of tested compounds was incubated in the presence of human plasma ([…]) and HEPES buffer (25 mM, 140 mM NaCl, pH 7.4) or DMEM 10% FBS, (1% PS, and 1% Glu) at 37 °C under shaking. At selected time points (0, 0.083, 0.25, 0.5, 1, 2, 8, 24 h), samples were treated with cold ACN to stop reactions through protein denaturation, and centrifuged at 5000 rpm for 10 min. The supernatant was analyzed by UV/LC-MS to monitor the amount of unmodified compound. Data were calculated with Excel and plotted using GraphPad Prism 8.0 (GraphPad Software Inc., San Diego, CA, USA). The half-life value (t1/2) was calculated with the following formula: [drawing 2]

in vitro [2] = test: in vitro; remark: listed apart in the source
Experimental: as §1

PAMPA assay = assay type: in vitro ADME; settings: 4 h, rt
Experimental: PAMPA assay. The DMSO stock solution of each compound was diluted 1:1 v/v with phosphate buffer (PBS 10 mM, pH 7.4) to obtain donor solutions. Each well of the filter plate was covered with a 1% w/v L-α-phosphatidylcholine solution (PC) in dodecane used to mimic the phospholipidic bilayer and then added with the donor. In the acceptor plate, a mixture solution of DMSO/PBS 1:1 v/v was placed, and the sandwich was incubated at rt for 4 h under gentle shaking. At the end time point, samples were taken from both the upper and the lower plates and analyzed using the UV/LC-MS method described above. Apparent permeability (Papp cm/s x 10^−6) and membrane retention (MR %) was calculated as previously reported.

[3] = HepG2 cytotoxicity, Neutral Red Uptake; assay type: cell-based, Human; settings: human
Experimental: (§2) Cell cultures and cytotoxicity assay. To evaluate the in vitro cytotoxicity of the test samples, the direct contact tests, proposed by ISO […], Biological evaluation of medical devices – Part 5: Tests for cytotoxicity: in vitro methods were used[71]. This test is suitable for sample with various shapes, sizes, or physical status (i.e. liquid or solid).
(§3) Evaluation of HepG2 viability. Cells were maintained in DMEM at 37 °C in a humidified atmosphere containing 5% CO2. The culture medium was supplemented with 10% fetal calf serum (FCS), 1% L-glutamine-penicillin-streptomycin solution, and 1% MEM Non-Essential Amino Acid Solution. Once at confluence, cells were washed with PBS 0.1 M, taken up with trypsin-EDTA solution and then centrifuged at 1000 rpm for 5 min. The pellet was re-suspended in medium solution (dilution 1:15).
(§4) The stock solutions of Mirin, Doxorubicin, and CA-M11 were prepared in DMSO. The following concentrations of Mirin and CA-M11 were tested: 5; 10; 20; 30; 40; 50; 60; 70; 80; 90 and 100 µM. […] Then, the experiments were repeated adding to Doxorubicin concentrations ranging from 0.3 to 6.0 µM, respectively, Mirin 5 µM, and CA-M11 5 µM. […] Each experiment was repeated 3 times, and all samples were set up in six replicates. A complete medium was used as negative control. […] At the end of the incubation, the routine culture medium was removed from each well, and cells were carefully rinsed with 1 mL of pre-warmed D-PBS. Multiwells were then gently blotted with paper towels. […] The cells were checked during the NR incubation for NR crystal formation. After incubation, the NR Medium was removed, cells were carefully rinsed with 1 mL of pre-warmed D-PBS. Then, the PBS was decanted and blotted from the wells and exactly 1 mL of NR Desorb solution was added to each sample. […] During this step the samples were covered in order to protect them from light. After 5 min from the plate shaker removal the absorbance was read at 540 nm by a UV/visible spectrophotometer (UV5, Mettler Toledo).

HepG2 cells = test: HepG2 cytotoxicity, Neutral Red Uptake; assay type: cell-based, Human
Experimental: as §2, §3, §4

[4] = tested on: Salmonella typhimurium strain TA98; test: Mutagenicity assay: Ames test, TA98; settings: for concentration from which a mutagenic effect is shown: Salmonella typhimurium, 90 min
Experimental: (§5) Mutagenicity assay: Ames test. The TA100 and TA98 strains of Salmonella Typhimurium were utilized for mutagenicity assay. Approximately 107 bacteria were exposed to 6 concentrations of each test compound, as well as a positive and a negative control, for 90 min in a medium containing sufficient histidine to support approximately two cell divisions. After 90 min, the exposure cultures were diluted in pH indicator medium lacking histidine, and aliquoted into 48 wells of a 384-well plate. Within two days, cells which had undergone the reversion to His grew into colonies. Metabolism by the bacterial colonies reduced the pH of the medium, changing the color of that well. This color change can be detected visually or by a microplate reader. The number of wells containing revertant colonies were counted for each dose and compared to a zero-dose control. Each dose was tested in six replicates. The following concentrations of Mirin and CA-M11 were tested: 5; 10; 30; 50; 80 and 100 µM. The concentration values tested of Doxorubicin were: 0.3; 1.2; 1.8; 3.0; 6.0 and 30 µM. The experiments were then repeated adding to Doxorubicin concentrations ranging from 0.3 to 30 µM, respectively, Mirin 5 µM and CA-M11 5 µM.

[5] = tested on: Salmonella typhimurium strain TA100; test: Mutagenicity assay: Ames test, TA100; settings: for concentration from which a mutagenic effect is shown: Salmonella typhimurium, 90 min
Experimental: as §5

[6] = Extraction recovery from denatured microsomes (matrix effect); settings: human, Recovery (% Rec, Time 0'), denatured human liver microsomes
Source text: Therefore, matrix effects were investigated by preparing fresh time-zero solutions made of denatured microsomes, solvent mix and tested compounds. To have a better correlation with the time-zero of the metabolic stability experiments, final volumes and concentrations used were not modified.
Extraction Recovery % (% Rec) of CA-M11 and Mirin in human liver microsomes. Data are reported as the mean ± standard deviation (SD) of n=3 experiments run in triplicates.

[7] = Microsomal (metabolic) stability; assay type: in vitro ADME; settings: human liver microsomes
Experimental: Microsomal stability. In the presence of phosphate buffer (PBS 10 mM, pH 7.4), human liver microsomes (HLM) (0.2 mg mL^−1), and a NADPH solution in MgCl2 48 mM, each DMSO compound solution was incubated at 37 °C for 1 h under shaking. Then, the metabolizing reactions were stopped by adding cold acetonitrile (ACN). After centrifuging and drying the reaction mixes under N2 flow, the quantitative analyses were performed using the UV/LC-MS method previously described. The percentages of the metabolized and unmetabolized compounds were calculated as previously described[73],[74].

C[C@H](CCC(=O)Oc1ccc(/C=C2\SC(=N)NC2=O)cc1)[C@H]1CCC2C3C(C[C@H](O)[C@@]21C)[C@@]1(C)CC[C@@H](O)CC1C[C@H]3O (stereo partly drawn) [CA-M11, (4R)-4-((Z)-(2-Imino-4-oxothiazolidin-5-ylidene)methyl)phenyl 4-((3R,7R,10 S,12 S,13R,17R)-3,7,12-trihydroxy-10,13-dimethylhexadecahydro-1 H-cyclopenta[a]phenanthren-17-yl)pentanoate]
Plasma stability (% ± SD) (in vitro [1]; human, 0 h, pH 7.4): 72.79 ± 2.57%
Plasma stability (% ± SD) (in vitro [1]; human, 0.083 h, pH 7.4): 74.01 ± 0.65%
Plasma stability (% ± SD) (in vitro [1]; human, 0.25 h, pH 7.4): 72.29 ± 3.22%
Plasma stability (% ± SD) (in vitro [1]; human, 0.5 h, pH 7.4): 75.47 ± 0.04%
compound hydrolyzed by plasmatic esterases (in vitro [1]; human, pH 7.4): Approximately 30%
half-life (in vitro [1]; human, plasma, pH 7.4, t 1/2 (half-life) in plasma): ~18 h
DMEM cell culture medium stability (% ± SD) (in vitro [2]; 0 h): 93.96 ± 5.76%
DMEM cell culture medium stability (% ± SD) (in vitro [2]; 0.083 h): 91.94 ± 0.85%
DMEM cell culture medium stability (% ± SD) (in vitro [2]; 0.25 h): 94.24 ± 0.37%
DMEM cell culture medium stability (% ± SD) (in vitro [2]; 0.5 h): 94.77 ± 0.60%
DMEM cell culture medium stability (% ± SD) (in vitro [2]; 1 h): 92.08 ± 2.15%
DMEM cell culture medium stability (% ± SD) (in vitro [2]; 2 h): 82.83 ± 3.38%
half-life (in vitro [2]; buffer): 21.7 h
Membrane retention MR (%) (PAMPA assay): 2.26 ± 0.64%
IC50 at 24 h [3]: 40 µM
cytotoxic effect on HepG2 cells at 5 µM (HepG2 cells): does not exert a significant cytotoxic effect
increase of cell death in combination with Doxorubicin (HepG2 cells; 5 µM compound + Doxorubicin 2.4 µM, HepG2, 24 h): roughly 40%
concentration from which a mutagenic effect is shown [4]: ≥ 10 µM
concentration from which a mutagenic effect is shown [5]: ≥ 10 µM
recovery at 0 min [6]: < 70%

COc1cccc2c1C(=O)c1c(O)c3c(c(O)c1C2=O)C[C@@](O)(C(=O)CO)C[C@@H]3O[C@H]1C[C@H](N)[C@H](O)[C@H](C)O1 [Doxorubicin]
viability at 24 h, 0.3 µM ([3]; HepG2 cells, Doxorubicin 0.3 µM, 24 h, read-out: Percentage of viable HepG2 cells): 84.7%
viability at 24 h, 0.6 µM ([3]; HepG2 cells, Doxorubicin 0.6 µM, 24 h, read-out: Percentage of viable HepG2 cells): 73.4%
viability at 24 h, 1.2 µM ([3]; HepG2 cells, Doxorubicin 1.2 µM, 24 h, read-out: Percentage of viable HepG2 cells): 65%
viability at 24 h, 1.8 µM ([3]; HepG2 cells, Doxorubicin 1.8 µM, 24 h, read-out: Percentage of viable HepG2 cells): 49.9%
viability at 24 h, 2.4 µM ([3]; HepG2 cells, Doxorubicin 2.4 µM, 24 h, read-out: Percentage of viable HepG2 cells): 38.4%
viability at 24 h, 3 µM ([3]; HepG2 cells, Doxorubicin 3.0 µM, 24 h, read-out: Percentage of viable HepG2 cells): 28.3%
viability at 24 h, 6 µM ([3]; HepG2 cells, Doxorubicin 6.0 µM, 24 h, read-out: Percentage of viable HepG2 cells): 18.9%
viability at 24 h, 12 µM ([3]; HepG2 cells, Doxorubicin 12.0 µM, 24 h, read-out: Percentage of viable HepG2 cells): 5.8%
IC50 at 24 h ([3]; HepG2 cells, HepG2, 24 h, Neutral Red Uptake, read-out: IC50 (cytotoxic effect)): 1.8 µM
concentration from which a mutagenic effect is shown [4]: ≥ 10 µM
concentration from which a mutagenic effect is shown [5]: ≥ 10 µM

[H]/N=C1/NC(=O)C(=Cc2ccc(O)cc2)S1 [Mirin, (Z)-5-(4-Hydroxybenzylidene)-2-iminothiazolidin-4-one]
Plasma stability (% ± SD) (in vitro [1]; human plasma, time 0 h): 89.10 ± 1.03%
Plasma stability (% ± SD) (in vitro [1]; human plasma, time 0.083 h): 90.80 ± 0.13%
Plasma stability (% ± SD) (in vitro [1]; human plasma, time 0.25 h): 92.18 ± 1.34%
Plasma stability (% ± SD) (in vitro [1]; human plasma, time 0.5 h): 88.72 ± 3.98%
Plasma stability (% ± SD) (in vitro [1]; human plasma, time 1 h): 89.70 ± 2.23%
Plasma stability (% ± SD) (in vitro [1]; human plasma, time 2 h): 84.51 ± 2.93%
Plasma stability (% ± SD) (in vitro [1]; human plasma, time 8 h): 83.07 ± 2.40%
Plasma stability (% ± SD) (in vitro [1]; human plasma, time 24 h): 77.94% and 77.94 ± 2.30%
percentage of unmodified compound in plasma (in vitro [1]; human plasma, up to 8 h of incubation): ≥ 80%
half-life (in vitro [2]): > 100 h
stability percentage in DMEM cell culture medium (in vitro [2]; DMEM 10% FBS, all time points up to 24 h): above 90%
DMEM cell culture medium stability (% ± SD) (in vitro [2]; DMEM 10% FBS, time 0 h): 104.19 ± 1.20%
DMEM cell culture medium stability (% ± SD) (in vitro [2]; DMEM 10% FBS, time 0.083 h): 106.18 ± 0.16%
DMEM cell culture medium stability (% ± SD) (in vitro [2]; DMEM 10% FBS, time 0.25 h): 107.78 ± 1.57%
DMEM cell culture medium stability (% ± SD) (in vitro [2]; DMEM 10% FBS, time 0.5 h): 103.73 ± 2.61%
DMEM cell culture medium stability (% ± SD) (in vitro [2]; DMEM 10% FBS, time 1 h): 104.88 ± 6.37%
DMEM cell culture medium stability (% ± SD) (in vitro [2]; DMEM 10% FBS, time 2 h): 98.81 ± 3.43%
DMEM cell culture medium stability (% ± SD) (in vitro [2]; DMEM 10% FBS, time 8 h): 97.14 ± 2.81%
DMEM cell culture medium stability (% ± SD) (in vitro [2]; DMEM 10% FBS, time 24 h): 91.14 ± 2.70%
half-life (in vitro [2]; buffer): 114 h
Metabolic stability (%) ([7]; time 0 min): 92.32 ± 1.93%
Metabolic stability (%) ([7]; time 60 min): 90.65 ± 0.83%
Membrane retention MR (%) (PAMPA assay): 1.16 ± 0.90%
IC50 at 24 h ([3]; HepG2, 24 h, Neutral Red Uptake, read-out: IC50 (cytotoxic effect)): 50 µM
effect on Doxorubicin mutagenicity ([4]; 5 µM compound + Doxorubicin 0.3 to 30 µM, TA98): not able to affect Doxorubicin mutagenicity
effect on Doxorubicin mutagenicity ([5]; 5 µM compound + Doxorubicin 0.3 to 30 µM, TA100): not able to affect Doxorubicin mutagenicity
recovery at 0 min [6]: 92.3 ± 1.92%
